Where two headings read alike, the source gives them in different places.
Tests used:
[1] = target: human 5-HT2A (h5-HT2A) receptor (Homo sapiens (Human), UniProt P28223); experiment: FLIPR assay, human 5-HT2A receptor under agonist mode; format: cell-based
Protocol: I. Assessment of the Activated Effect of Compounds of Formula I Targeting on Human 5-HT2A (h5-HT2A) Receptor Under Agonist Mode
1. Culture the cells in cell culture medium (DMEM containing 10% FBS, 1× penicillin-streptomycin 300 μg/ml G418 and 100 μg/ml hygromycin B) at 37° C., 5% (v/v) CO2.
2. One day before the assays, detach the cell using TrypLE™ Express and count cells using cell counter.
3. Seed 20000 cells/well in 30 μl/well culture medium to a 384-well cell plate and incubate the cells overnight at 37° C., 5% (v/v) C02.
4. On the assay day, prepare 2× dye solution following the manual of the FLIPR® Calcium 6 Assay Kit: i. Dilute the dye with assay buffer (20 mM HEPES in 1×HBSS, PH7.4); ii. Add probenecid to the final concentration of 5 mM; iii. Vortex vigorously for 1-2 minutes.
5. Remove medium from cell plate by flicking the cell plate on towel papers.
6. Add 10 μl of assay buffer and 10 μl of 2× dye solution to each well of the cell plate.
7. Put the cell plate on plate shaker, agitate the plate at 600 rpm for 2 minutes. Incubate the plate at 37° C. for 2 hours followed by additional 15-minute incubation at 25° C.
8. Prepare 3× compound in assay buffer: a. Dilute reference compounds to required concentration with DMSO. Add the compounds to a 384-well compound plate; b. Perform serial dilutions; c. Add 10 mM test compounds to the compound plate, perform 3-fold serial dilutions. d. […] Add 20 μl/well assay buffer to the compound plate; f. Mix the plate on plate shaker for 2 mins;
i. The normalized fluorescence reading (RFU) is calculated as shown follow, while Fmax and Fmin stand for maximum and minimum of calcium signal during defined time window: RFU=Fmax−Fmin
ii. Calculate the percentage activation by using following equation: […]
iii. Calculate EC50 by fitting % activation against log of compound concentrations with Hill equation using XLfit.

human 5-HT2A receptor = human 5-HT2A receptor (Homo sapiens (Human), UniProt P28223); experiment: Radioligand binding assay ([3H]-ketanserin) on human 5-HT2A receptor
Protocol: i. Prepare the assay buffer following the table below;
ii. Preparation of 8 doses of reference and test compounds starting from 10 mM stock solution as requested by 5-fold serial dilutions with 100%;
iii. […] a. Add 50 μl/well of 0.5% (v/v) PEI to UniFilter-96 GF/B plates. Seal the plates and incubate at 4° C. for 3 hrs; b. After incubation, wash the plates 3 times with ice-cold wash buffer (50 mM Tris, pH7.4);
iv. Preparation of assay plates: a. Dilute cell membrane with assay buffer and add 330 μl/well to 96 round deep well plates to reach a concentration of 20 μg/well; b. Prepare 8 concentrations of reference or exemplary compounds of the application and add 110 μl/well to 96 round deep well plates; c. Dilute [3H]-ketanserin with assay buffer to 5 nM (5× final concentration) and add 110 μl/well to 96 round deep well plates.
v. Centrifuge the plate at 1000 rpm for 30 secs and then agitate at 600 rpm, R.T. for 5 min.
vi. Seal the plates and incubate the plate at 27° C. for 90 min.
vii. Stop the incubation by vacuum filtration onto GF/B filter plates followed by 4 times washing with ice-cold wash buffer (50 mM Tris, pH7.4).
ix. Seal the filter plates and add 40 μl/well of scintillation cocktail.
x. Read the plate by using a Microbeta2 microplate counter.
For reference and exemplary test compounds of the application, the results are expressed as % Inhibition, using the normalization equation: N=100−100×(U−C2)/(C1−C2), where U is the unknown value, C1 is the average of high controls, and C2 is the average of low controls. The IC50 is determined by fitting percentage of inhibition as a function of compound concentrations with Hill equation using XLfit.

[2] = Human liver microsomes stability with NADPH
Protocol: (§1) The objective of this study was to estimate in vitro metabolic stability of 1-45 in pooled human and male mouse liver microsomes. The concentrations of exemplary compounds in reaction systems were evaluated by LC-MS/MS for estimating the stability in pooled human and male mouse liver microsomes. The in vitro intrinsic clearances of test compounds were determined as well.
(§2) A master solution in the “Incubation Plate” containing phosphate buffer, ultra-pure H2O, MgCl2 solution and liver microsomes was made according to Table --. The mixture was pre-warmed at 37° C. water bath for 5 minutes.
(§3) 40 μL of 10 mM NADPH solution was added to each well. The final concentration of NADPH was 1 mM. The negative control samples were prepared by replacing NADPH with 40 μL of ultra-pure H2O. Samples were prepared in duplicate. Negative controls were prepared in singlet.
(§4) The reaction was started with the addition of 4 μL of 200 μM test compounds or control compounds to each master solution to get the final concentration of 2 μM. This study was performed in duplicate.
(§5) Aliquots of 50 μL were taken from the reaction solution at 0, 15, 30, 45 and 60 minutes. The reaction solutions were stopped by the addition of 4 volumes of cold methanol with IS (100 nM alprazolam, 200 nM imipramine, 200 nM labetalol and 2 μM ketoprofen). Samples were centrifuged at 3,220 g for 40 minutes. Aliquot of 90 μL of the supernatant was mixed with 90 μL of ultra-pure H2O and then was used for LC-MS/MS analysis.
(§6) LC/MS analysis was performed for all samples from this study using a Shimadzu liquid chromatograph separation system equipped with degasser DGU-20A5R; solvent delivery unit LC-30AD; system controller SIL-30AC; column oven CTO-30A; CTC Analytics HTC PAL System. Mass spectrometric analysis was performed using an Triple Quad™ 5500 instrument.
(§7) All calculations were carried out using Microsoft Excel. Peak area ratios of test compound to internal standard (listed in the below table) were determined from extracted ion chromatograms.
(§8) All calculations were carried out using Microsoft Excel. Peak areas were determined from extracted ion chromatograms. The slope value, k, was determined by linear regression of the natural logarithm of the remaining percentage of the parent drug vs. incubation time curve.
(§9) Conversion of the in vitro t1/2 (min) into the in vitro intrinsic clearance (in vitro CLint, in μL/min/mg proteins) was done using the following equation (mean of duplicate determinations):
(§10) [formula] […] Results & Discussion

[3] = Mouse liver microsomes stability with NADPH
Protocol: as §1, §2, §3, §4, §5, §6, §7, §8, §9, §10

[4] = Rat liver microsomes stability with NADPH
[5] = cited from earlier work

Which EC50 [1] does the source give for `[2H]C([2H])([2H])N(C([2H])([2H])[2H])C([2H])([2H])C([2H])([2H])c1c[nH]c2cccc(OP(=O)(O)O)c12` [Compound I-3, 3-(2-(bis(methyl-d3)amino)ethyl-1,1,2,2-d4)-1H-indol-4-yl dihydrogen phosphate] here?
The EC50 was 1000 to 10000 nM.

And the IC50 (human 5-HT2A receptor)?
The IC50 was 500 to 5000 nM.

For `[2H]C([2H])([2H])N(C([2H])([2H])[2H])C([2H])([2H])C([2H])([2H])c1c[nH]c2cccc(F)c12` [Compound I-43, 2-(4-fluoro-1H-indol-3-yl)-N,N-bis(methyl-d3)ethan-1-amine-1,1,2,2-d4], which EC50 [1] is on record?
Its EC50 is < 1000 nM.

What about the IC50 (human 5-HT2A receptor) of the same compound?
Its IC50 is < 500 nM.

For `[2H]C([2H])([2H])N(C([2H])([2H])[2H])C([2H])([2H])C([2H])([2H])c1c[nH]c2cccc(OC)c12` [Compound I-44, 2-(4-methoxy-1H-indol-3-yl)-N,N-bis(methyl-d3)ethan-1-amine-1,1,2,2-d4], which EC50 [1] is on record?
The EC50 was < 1000 nM.

What about the IC50 (human 5-HT2A receptor) of the same compound?
Its IC50 is < 500 nM.

Which “Remaining Percentage (%) after 60 min” value ([2]; Human, with NADPH, 2 μM) does the source give for `CN(C)CCc1c[nH]c2cccc(O)c12` [Psilocin, 4-hydroxy-N,N-dimethyltryptamine, reference compound] here?
Its value is 70.16%.

And the half-life at 2 μM ([2]; human, microsomes)?
Its half-life at 2 μM is 1.96 h.

And the microsomal CLint at 2 μM ([2]; human, microsomes)?
Its microsomal CLint at 2 μM is 11.8 µL/min/mg.

What about the “Remaining Percentage (%) after 60 min” value ([3]; Mouse, with NADPH, 2 μM) of the same compound?
The value was 96.89%.

What about the half-life at 2 μM ([3]; male, mouse, microsomes) of the same compound?
The half-life at 2 μM was 2.36 h.

And the microsomal CLint at 2 μM ([3]; male, mouse, microsomes)?
The microsomal CLint at 2 μM was 9.78 µL/min/mg.

What about the “Remaining Percentage (%) after 60 min” value ([4]; Rat, with NADPH, 2 μM) of the same compound?
The value was 62.68%.

What about the half-life at 2 μM ([4]; rat, microsomes) of the same compound?
Its half-life at 2 μM is 1.48 h.

What about the microsomal CLint at 2 μM ([4]; rat, microsomes) of the same compound?
Its microsomal CLint at 2 μM is 15.6 µL/min/mg.

For `CN(C)CCc1c[nH]c2cccc(OP(=O)(O)O)c12` [psilocybin, 4-phosphoryloxy-N,N-dimethyltrypatmine], which abstinence rate ([5]; 12 months follow-up) is on record?
Its abstinence rate is 67%.

And the abstinence rate ([5]; six months follow-up)?
Its abstinence rate is 80%.
